Test results reported in PubChem BioAssay (NCI).
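How tested: cells in 96-well plates exposed to compound for 48 hours at five concentrations. Definition used: TGI = concentration required for complete inhibition of growth.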

Experiments:
Assay in all cases: DTP human tumour cell line panel, 48 h
[1] = system: M14 melanoma
[2] = system: HCC-2998 colon
[3] = system: SR leukemia
[4] = system: MALME-3M melanoma
[5] = system: NCI/ADR-RES ovarian
[6] = system: HCT-116 colon
[7] = system: UO-31 renal
[8] = system: TK-10 renal
[9] = system: NCI-H460 lung
[10] = system: SF-295 CNS
[11] = system: ACHN renal
[12] = system: HS 578T breast
[13] = system: HCT-15 colon
[14] = system: SNB-19 CNS

Row | SMILES | TGI [1] [µM] | TGI [2] [µM] | TGI [3] [µM] | TGI [4] [µM] | TGI [5] [µM] | TGI [6] [µM] | TGI [7] [µM] | TGI [8] [µM] | TGI [9] [µM] | TGI [10] [µM] | TGI [11] [µM] | TGI [12] [µM] | TGI [13] [µM] | TGI [14] [µM]
1 | CCC1(CC)C(=O)NN(C(=O)c2ccc(Cl)cc2)C1=O | > 100 | > 100 | > 100 | 18.1 | > 100 | > 100 | > 100 | > 100 | > 100 | > 100 | > 100 | > 100 | > 100 | > 100
2 | O=C1CC2(CCNCC2)C(=O)N1N1CCCCC1 | > 100 | > 100 | > 100 | > 100 | > 100 | > 100 | > 100 | > 100 | > 100 | > 100 | > 100 | > 100 | > 100 | > 100
3 | COC1=CC(=O)c2c(n[nH]c2CCNC(=O)OCc2ccccc2)C1=O | 26.7 | 39.6 | 65.5 | 6.5 | > 100 | 24.9 | 28.8 | 70.6 | 31.3 | 34.9 | 27.2 | 69.1 | 30.8 | 39.8
4 | O=[N+]([O-])c1cc2ccc1OCc1cccc(n1)COc1ccc(cc1[N+](=O)[O-])C=NCCCCCCCCN=C2 | > 100 | > 100 | > 100 | > 100 | > 100 | > 100 | > 100 | > 100 | > 100 | > 100 | > 100 | > 100 | > 100 | > 100
5 | N#Cc1nc(-c2ccc(-c3nc(C#N)c(N)o3)cc2)oc1N | > 10 | > 10 | > 10 | > 10 | > 10 | > 10 | > 10 | > 10 | > 10 | > 10 | > 10 | > 10 | > 10 | > 10
6 | Cn1c(-c2cccs2)cc(-c2ccsc2)c1-c1cccs1 | > 100 | > 100 | > 100 | > 100 | > 100 | > 100 | > 100 | > 100 | > 100 | > 100 | > 100 | > 100 | > 100 | > 100
7 | O=C1Nc2ccccc2/C1=N/N1C(=O)/C(=C/c2ccccc2S)N=C1c1ccccc1 | > 100 | > 100 | > 100 | > 100 | > 100 | > 100 | > 100 | > 100 | > 100 | > 100 | > 100 | > 100 | > 100 | > 100
8 | COC(=O)/C=C/c1ccc2c(c1)[C@H](C(=O)OC)[C@@H](c1ccc(O)cc1)O2 | 42.7 | 59.4 | 45.8 | 80.6 | > 100 | > 100 | 70 | > 100 | > 100 | > 100 | > 100 | 96.4 | 47.3 | > 100
9 | CC(C(=O)O)C1Nc2ccccc2NC1=O (stereo not drawn) | > 100 | > 100 | > 100 | > 100 | > 100 | > 100 | > 100 | > 100 | > 100 | > 100 | > 100 | > 100 | > 100 | > 100
10 | COC(=O)/C(C#N)=C(/NCc1ccccc1)Nc1ccccc1 | > 100 | > 100 | > 100 | > 100 | > 100 | > 100 | > 100 | > 100 | > 100 | > 100 | > 100 | > 100 | > 100 | > 100
11 | COc1cc(OC)c2nc(C)c3c(c2c1)OCC3 | > 100 | > 100 | > 100 | > 100 | > 100 | > 100 | > 100 | > 100 | > 100 | > 100 | > 100 | > 100 | > 100 | > 100
12 | N#CCCN(CCCN(C(=O)Nc1ccc(NC(=O)N(CCCN(CCC#N)C(N)=O)c2ccccc2)cc1)c1ccccc1)C(N)=O | > 100 | > 100 | > 100 | > 100 | > 100 | > 100 | > 100 | > 100 | > 100 | > 100 | > 100 | > 100 | > 100 | > 100
